| SMILES | melting point [°C] |
| --- | --- |
| CCOC(=O)c1csc(-c2ccc3nc(CC(C)C)c(CN)c(-c4ccc(C)cc4)c3c2)n1 | 150 to 152 |
| O=C(Nc1ccccc1)c1ccc([N+](=O)[O-])cc1 | 90 to 93 |
| O=C(NCC1(c2ccccc2)CCCCC1)Nc1ccc(Cl)cc1 | 164 to 166 |
| CCOc1ccc(CNC(=O)C(=O)NCCc2ccccn2)c(OC)c1 | 117 to 118 |
| COCCOc1cc(NS(=O)(=O)c2ccccn2)c2[nH]c(C(=O)NCC(CN3CCSCC3)SCc3ccccc3)cc2c1 (centres undefined) | 160 to 161 |
| COc1ccc(C=Nc2ccc(SC)cc2)cc1 | 183 to 184 |
| COC(=O)c1ccc(-c2nc(CCl)c(C)o2)cc1 | 130 to 131 |
| COc1ccc2cc(CCc3ccc(OCC(O)CNC(C)C)c(OC)c3)n(C)c(=O)c2c1 (centres undefined) | 162 to 164 |
| Clc1ccc2c(NCCC34C=CCN3CCC4)ccnc2c1 (centres undefined) | 124 to 125 |
| COc1c(NOCc2ccc(C(C)(C)C)cc2)ccnc1C | 113 |
| CCOC(=O)C(=O)Nc1c([N+](=O)[O-])sc2ccc(F)cc12 | 129 to 131 |
| Cc1c(NC(=O)c2ccc(-c3ccc(F)c(F)c3)cc2)ccc2cc(CN3CCCC3)cnc12 | 199 to 201 |
| N#Cc1ccc(-c2cnc(F)c(OC3SCC(O)C(O)C3O)c2)cc1 (centres undefined) | 220 |
| CCN(CC)c1nsc(NC(=O)NC)c1C(N)=O | 195 to 197 |
| O=S(=O)(Nc1ccc2c(OCc3csc(-c4ccccc4Cl)n3)cccc2c1)C(F)(F)F | 128 to 129 |
| COc1cccc(-c2c(C)c(NC(=O)CC(C)(C)C)c(C)c3c2OCC3c2ccc(C(C)C)cc2)c1 (centres undefined) | 209 to 210 |
| O=C1CC2(CCC2)C(CC(Cl)(Cl)Cl)O1 (centres undefined) | 86.5 to 87.5 |
| NC(=O)N1CCN(c2nn(-c3ccccc3)c3cc(F)ccc23)CC1 | 168 to 170 |
| N=C(N)NC(=O)c1cn(-c2nccc3ccccc23)c2ncccc12 | 250 |
| CCCC(=O)N(Cc1ccc(Cl)cc1Cl)c1c(NC(C)(C)CC)c(=O)c1=O | 112 to 117 |

| SMILES | melting point [°C] |
| --- | --- |
| O=c1[nH]c(Nc2ccccc2)nc2c1ncn2CCCCO | > 350 |
| C[Si](C)(C)c1cccs1 | 61 to 62 |
| O=C1Nc2cccnc2N(C(=O)N2CCC(CCN3CCCCC3)CC2)c2ccccc21 | 178 to 180 |
| COc1ncccc1Cc1cc2cccc(-c3cccc(C(=O)NCCO)c3)c2s1 | 121 to 122 |
| CC1(C)C(=O)N(c2ccc(C#N)c(C(F)(F)F)c2)C(=S)N1CCO | 130 |
| CC1(C)CC(NS(C)(=O)=O)c2ccccc21 (centres undefined) | 117 to 119 |
| [N-]=[N+]=NC1(c2ccccc2Cl)C(=O)Nc2ccc(Cl)cc21 (centres undefined) | 178 |
| FC(F)(F)c1c[nH]c(-c2ccc(OCC3CO3)cc2)n1 (centres undefined) | 152 to 154 |
| O=C1c2ccccc2OC2=CCON12 | 144 to 148 |
| COC(=O)c1ccccc1S(=O)(=O)Nn1cnn(-c2nc(OC)cc(OC)n2)c1=O | 192 |
| COc1ccc(OC)c2c1C(=O)C=C(SCCCCCCCCCCC(=O)O)C2=O | 146 to 147 |
| NC(=O)C1N=COC1CCl (centres undefined) | 110 to 112 |
| O=C(NC(C(=O)O)c1ccsc1)OCc1ccccc1 (centres undefined) | 115 to 117 |
| CCOC(=O)c1c(C(F)(F)F)nc(C(F)F)c(C(=O)OC)c1NCC#N | 87 to 89 |
| N#Cc1nc(Cl)c(Cl)nc1C#N | 180 to 182 |
| O=C(O)CCSC(=S)NCc1ccc(Cl)cc1 | 104 to 105 |
| CNC(=O)Cc1ccccc1O | 105 to 106 |
| CCCc1nc(C)n2cnnc2c1Cc1ccc(-c2ccccc2C#N)cc1 | 153 |
| CC[Si](C#Cc1ccc2nc(-c3ncc[nH]3)nc(NCCOC)c2c1)(CC)CC | 158 to 160 |
| O=C(c1cc2ccc(N3CCOCC3)cc2o1)C12CC3CC(CC(C3)C1)C2 | 123 to 125 |

| SMILES | melting point [°C] |
| --- | --- |
| C=CCn1c(=O)c2c(nc(/C=C/c3ccc(OC(C)=O)c(OC)c3)n2C)n(CC=C)c1=O | 207 to 208 |
| CCOCc1nc2c(N)nc3cccnc3c2n1CC(C)(C)O | 157 to 159 |
| CCCCc1nccc2ccc(C(=O)N[C@@H](Cc3cc(F)cc(F)c3)[C@H](O)CNCc3cccc(CC)c3)cc12 | 109 to 110 |
| CS(=O)(=O)c1ccc(-c2cc3c(cc2C(=O)c2cc(F)cc(F)c2)OCCO3)cc1 | 191 to 193 |
| COC(=O)C(COc1ccc(Cl)cc1C#N)Oc1ccccc1Cl (centres undefined) | 105 |
| N#Cc1ccc2[nH]cc(-c3nc(-c4cccnc4)cs3)c2c1 | 240 |
| O=C1N[C@H](/C=C/c2ccccc2)[C@@H]1N1C(=O)c2ccccc2C1=O (relative stereo) | 168 to 170 |
| COC1=Nc2cc(OC)c(F)cc2C(c2ccccc2Cl)=NC1C(C)=O (centres undefined) | 172 to 174 |
| COC(=O)CCCCCOc1ccc(N=C=O)cc1 | 47 to 50 |
| COCCOc1cc(-c2ccccn2)nc(-c2ccccn2)c1 | 105 to 106 |
| COc1ccc(N2CCN(c3c(C)c(C)c4c(c3C)C(N3CCOCC3)C(C)(C)O4)CC2)cc1 (centres undefined) | 181 to 182 |
| COc1ccc(C(=CC#N)c2cccc(N)c2)cc1OC | 100 to 101 |
| C=CCOC(=O)c1c(Oc2nc(OC)cc(OC)n2)ccc2[nH]c(C)c(NC(C)=O)c12 | 177 to 180 |
| CNC1=CC(=O)N(C)C1 | 132 to 134 |
| COc1cccc(CNC(=O)c2nc3scc(COc4ccc(C(=O)O)cc4)c3c(=O)[nH]2)c1 | 297 to 299 |
| Cc1c(=O)o[n-][n+]1CCSC1CCCCC1 | 82 to 83 |
| COc1cc2ncc(NC3CCCCC3)nc2cc1N1CCOCC1 | 194 to 196 |
| CN(C)c1ccc(CC(OCC(O)CN2CCCCC2)C(=O)c2ccccc2)cc1 (centres undefined) | 113 to 115 |

Continued, values first:

| melting point [°C] | SMILES |
| --- | --- |
| 150 | NC1CCN(c2ncc3ncnc(Nc4ccc(OCc5ccccc5)cc4)c3n2)CC1 |
| 275 to 277 | Oc1ccc2c(-c3ccc4c(O)cccc4c3)noc2c1 |
| 151 to 152 | Nc1ccccc1Sc1ccc([N+](=O)[O-])cc1[N+](=O)[O-] |
| 102 to 105 | CCCc1c(OCCCOC2CC(CC(=O)O)Oc3ccccc32)ccc(C(C)=O)c1O (centres undefined) |
| 211 to 212 | CCOC(=O)c1cc(Oc2ccc3c(C(=O)O)cccc3c2)ncn1 |
| 140 to 141 | COc1ccc(C2(C=O)C=CC=CC2)cc1OCCCC1(c2noc3cc(F)ccc23)CCNCC1 (centres undefined) |
| 116 to 118 | COc1cc(OC)nc(Oc2cccc(Oc3ccccc3)c2C(=O)O)n1 |
| 118 to 119 | CCOC(=O)[C@H]1O[C@@H]1C(=O)N[C@@H](CC(C)C)C(=O)c1ccccc1 |
| 134 | CC(C)(C)c1cccc(S(=O)(=O)Nc2cc(C(F)(F)F)ccc2I)c1 |
| 245 to 247 | COc1ccc(-c2nc(C(=O)c3ccc(F)cc3)c[nH]2)cc1 |
| 72 to 73 | N#CC(c1cccc(Cl)c1)N1CCOCC1 (centres undefined) |
| 74 to 75 | CCCCCCC(=O)NNC(=O)OC |
| 243 to 244 | CC(=O)Nc1nc2c(nc(NC(C)=O)n2Cc2cccs2)c(=O)[nH]1 |
| 145 to 146 | O=C1OC(CCC#Cc2ccccc2)C(O)=C1O (centres undefined) |
| 238 | COc1ccc(-c2nc(-c3ccn4c3CCC4)[nH]c2-c2ccc(OC)cc2)cc1 |
| 90 to 94 | CCNC(=O)c1c([Si](C)(C)C)sc(C)c1C |
| 80 to 82 | COC(=O)C(=O)c1ccc(OC/C=C/c2ccccc2)cc1 |
| 88 to 91 | CC(C)(C)OC(=O)N=C(NC(=O)OC(C)(C)C)N1CCCC1 |
| 191 to 193 | CCCc1nc(N2CCc3ccccc3CC2)c(C#N)c(=O)[nH]1 |
| 290 to 300 | O=C(O)C1=Cc2cc(Br)ccc2S(=O)(=O)CC1 |
| 178 to 180 | O=Cc1ccc2c(c1)OCC(=O)N2 |
| 189 to 191 | CC1(C)C(=O)C(C)(C)c2cc(C(O)CN3CCN(c4nsc5ccccc45)CC3)ccc21 (centres undefined) |
| 170 to 171 | Cc1cnc(CSc2nc3cc(OC(F)(F)C(F)F)ccc3[nH]2)c(Cl)c1N1CCCCC1 |

| melting point [°C] | SMILES |
| --- | --- |
| 224 to 226 | O=c1[nH]c(CSCc2ccccc2)nc2nccnc12 |
| 164 to 165 | Nc1cccc2[nH]c3c(c12)CCN(Cc1ccccc1)CC3 |
| 116 to 119 | Cc1oc2c(OC(C)C(N)=O)cccc2c1C (centres undefined) |
| 246 to 248 | Oc1cccc2c1CCC(c1ccccn1)O2 (centres undefined) |
| 79.5 to 84 | CNc1nc(SCc2ccc(OC)cc2)nc(N2CCOCC2)c1N |
| 78 to 80 | COc1cccc(CN2CCN(C)CC2C2=NCCN2)c1 (centres undefined) |
| 174 to 176 | COC1=CC(O)=CC(OC)C1(OC)c1cc2cccnc2[nH]1 (centres undefined) |
| 83 to 86 | Cc1ncccc1C(C#N)N1CCN(C(=O)CC(NC(=O)Cc2cccc(OCc3ccc4ccccc4n3)c2)c2ccccc2)CC1 (centres undefined) |
| 116 to 117 | COc1ccnc(CCc2nc3cccnc3[nH]2)c1 |
| 195 to 196 | Cc1ccc(N2CN(Cc3ccccc3)C3=NN=CC3=C2N)cc1 |
| 219 to 220 | CS(=O)(=O)Nc1ccc(-c2cn3cccnc3n2)cc1Sc1ccc(F)cc1F |
| 179 to 181 | Nc1ccc(C(=O)c2c(F)cccc2F)c(N)n1 |
| 78 to 80 | COc1ccc(CNS(=O)(=O)CCCCl)cc1 |
| 101 to 103 | O=[N+]([O-])c1ccc(OCc2ccccc2)cc1OCc1ccccc1 |
| 185 | C/C=C/c1ccc2c(NCc3ccc(NC(=O)c4ccc(Cl)nc4)cc3)nc(N(C)C)nc2c1 |
| 249 to 251 | CSc1ccc(C(=O)C(=O)c2ccc(Cl)c(Cl)c2)cc1 |
| 206 to 207 | O=c1nc(N2CCC(O)CC2)sc2ncccc12 |
| 194 to 196 | CCOC(=O)c1cc2c(o1)CNCC2(O)c1ccc(C)cc1 (centres undefined) |
| 138 | CCOC(=O)c1cccc(NC(=O)Oc2ccccc2)c1 |
| 86 to 88 | COc1ccc2c(c1)C1(CCN(Cc3ccccc3)CC1)OC2c1ccc(F)cc1 (centres undefined) |
| 182 to 184 | COCCOC(=O)Cc1cccc(Nc2nccc(-c3sc(N)nc3C)n2)c1 |
| 161 to 162 | N#CCN1C(=O)C2(COc3cc4c(cc32)OCCO4)c2ccccc21 (centres undefined) |
| 71 to 72 | CCCCCCCCCCCN=C=S |

— a melting point compilation (Tetko et al.; mined from patent text by program, amines drawn as free bases though some values may be those of a salt)
